From PMC6273270, “Flavonoid Interaction with a Chitinase from Grape Berry Skin: Protein Identification and Modulation of the Enzymatic Activity” (Molecules, 2016)

Test system: T1, chitinase from S. griseus
T1 construct: gene chiC; commercial native preparation (Sigma Aldrich), low purity, antibody-reactive band about 23 kDa; authors ascribe it to family 19 chitinase C
Experiment: fluorimetric release of 4-methylumbelliferone, Michaelis-Menten fit
Format: biochemical, Streptomyces griseus
Settings: McIlvain's buffer, pH 5.5, 37 °C, 1 h; no flavonoid (control of the quercetin series); apparent; commercial low-purity enzyme
Source text: fluorimetric release of 4-methylumbelliferone, Michaelis-Menten fit on chitinase from S. griseus

SMILES: CC(=O)N[C@H]1[C@H](Oc2ccc3c(C)cc(=O)oc3c2)O[C@H](CO)[C@@H](O[C@@H]2O[C@H](CO)[C@@H](O[C@@H]3O[C@H](CO)[C@@H](O)[C@H](O)[C@H]3NC(C)=O)[C@H](O)[C@H]2NC(C)=O)[C@@H]1O [4-methylumbelliferyl β-d-N,N′,N′-tri-acetyl-chitotrioside]
- Km: 35.4 ± 4.18 µM
